Laboratory results published in patent US4569937A, “Analgesic mixture of oxycodone and ibuprofen” (priority 1985, dated 1986).
Like-named read-outs stand apart in the source and are kept apart here.

System: phenyl-p-benzoquinone induced writhing in mice
Format: in vivo, mice (male CF1)
Details: oral, N=43 mice/dose; for % MICE BLOCKED: 5 min

| SMILES | % MICE BLOCKED (oxycodone HCl 0.36 mg/kg) | % MICE BLOCKED (oxycodone HCl 0.72 mg/kg) | % MICE BLOCKED (oxycodone HCl 1.44 mg/kg) | % MICE BLOCKED (oxycodone HCl 2.88 mg/kg) | % MICE BLOCKED (oxycodone HCl 5.76 mg/kg) | ED50 AT 5 MIN, Oxycodone (95% Confidence Limits) (oxycodone HCl part of the ED50 dose (alone or at fixed ratio oxycodone:ibuprofen)) | % MICE BLOCKED (ibuprofen 2.25 mg/kg) | % MICE BLOCKED (ibuprofen 4.49 mg/kg) | % MICE BLOCKED (ibuprofen 8.98 mg/kg) | % MICE BLOCKED (ibuprofen 17.96 mg/kg) | ED50 AT 5 MIN, Ibuprofen (95% Confidence Limits) (ibuprofen part of the ED50 dose (alone or at fixed ratio oxycodone:ibuprofen)) |
| --- | --- | --- | --- | --- | --- | --- | --- | --- | --- | --- | --- |
| COc1ccc2c3c1O[C@H]1C(=O)CC[C@@]4(O)[C@@H](C2)N(C)CC[C@]314 [Oxycodone] | 11.6% | 4.7% | 39.5% | 81.4% | 95.3% | 1.88 mg/kg |  |  |  |  |  |
| CC(C)Cc1ccc(C(C)C(=O)O)cc1 (stereo not drawn) [Ibuprofen, α-methyl-4-(2-methylpropyl)benzeneacetic acid] |  |  |  |  |  |  | 7.0% | 11.6% | 20.1% | 62.8% | 15.8 mg/kg |
